In US20200368175A1, “METHODS AND DEVICES FOR TREATING LEVODOPA INDUCED DYSKINESIA” (CHRONO THERAPEUTICS INC., priority 2017, published 2020):
Where two headings read alike, the source gives them in different places.

What was measured:
[1] = oral nicotine, human; from Hukkanen et al. and US 20130017259A1; cited from earlier work
[2] = amnestic MCI subjects, six months, cited from earlier work
clinical = assay: clinical
Experimental: The graph is based on the oral nicotine administration protocol administering a 6 mg nicotine tablet every 6 hours, as described in International Patent Publication No. WO 2013/006643, the entirety of which is incorporated by reference herein.
To obtain the graph shown in FIG. 2, the plasma concentration-time profile of oral nicotine was simulated using the pharmacokinetic equation (equation 1) for multiple-dose oral administration: […]
where F is oral bioavailability. D is oral dose, ka is absorption rate constant. Vd is volume of distribution, ke is elimination rate constant, s is dose interval, n is the number of dose, and C is the plasma concentration at any time ‘t’.
The pharmacokinetic parameters F, D, and T were obtained from Hukkanen, J. et al. Pharmacol Rev. 2005 March; 57(1):79-115 and U.S. Patent Publication No. 20130017259A1. Further, the pharmacokinetic parameter absorption rate constant (ka) shown in the above table was obtained by fitting the orally administered nicotine PK data (obtained from Benowitz, N. L. et al. Clin Pharmacol Ther. 1991 March; 49(3):270-7) to a two-compartmental pharmacokinetic model (shown in FIG. 4). Pharmacokinetic parameters Vd (volume of distribution) and ke (elimination rate constant) were obtained by fitting intravenously administered nicotine PK data (obtained from Benowitz, N. L. et al. Clin Pharmacol Ther. 1991 March; 49(3):270-7) to the two-compartmental model shown in FIG. 4 without the absorption component and lag component.

[3] = transdermal delivery device, clinical PK data fitted to two-compartmental model with lag compartment
Excerpt: To obtain the graphs shown in FIGS. 5-7, the plasma concentration-time profile of nicotine administered transdermally was simulated by means of a two compartmental model, as shown in FIG. 4. In addition to the two compartments (Central and peripheral), the lag compartment was included to take absorption lag into account associated with transdermal delivery.

CN1CCCC1c1cccnc1 (stereo not drawn) [nicotine]
F (oral bioavailability), average value [1]: 0.32 | effect on attention, memory and psychomotor speed ([2]; 15 mg per day transdermal nicotine vs placebo): significant nicotine-associated improvements in attention, memory, and psychomotor speed | safety and tolerability ([2]; 15 mg per day transdermal nicotine): excellent safety and tolerability | Vd (clinical; human, plasma, iv): 76 L | ke (elimination rate constant), average value (clinical; intravenous nicotine PK data of Benowitz et al. fitted to two-compartmental model without absorption and lag components): 0.9 h⁻¹ | ka (absorption rate constant), average value (clinical; oral nicotine PK data of Benowitz et al. fitted to two-compartmental model): 2.5 h⁻¹ | Vd (volume of distribution), average value [3]: 59 L | ka (absorption rate constant), average value [3]: 0.29 h⁻¹ | ke (elimination rate constant), average value [3]: 2.15 h⁻¹
